Experimental data from patent publication US6699690B2, “Molecular constructs with a carcinoembryonic antigen (CEA) transcriptional regulatory sequence” (SmithKline Beecham Corporation, priority 1992, dated 2004).
Like-named read-outs stand apart in the source and are kept apart here.

What was measured:
[1] = test system: WiDr cells; assay: Inhibition of cell growth by 5-FC in WiDr cells; assay type: cell-based; details: Homo sapiens; control WiDr cells, 3,000 cells per well, dosed from Day 3, read Day 8
Description: (§1) FIG. 23: 5-FC dose response of mixed WiDr and WiDr/CD cells. […] Beginning on Day 3, the cells were dosed with serially diluted 5-FC at the concentrations indicated on the x axis. The plates were stained and read on Day 8.
(§2) The following data illustrates and supports this important component of this invention. A human colorectal carcinoma cell line, WiDr, was genetically engineered to express cytosine deaminase (CD) by transfecting into the cell line the cloned gene for cytosine deaminase in an appropriate expression vector system for mammalian cells. WiDr cells expressing cytosine deaminase (WiDR/CD) and control cells not expressing cytosine deaminase (WiDr) were mixed together at different ratios, then plated at a total of 3,000 cells per well in a 96 well microtiter dish. […] Using the same mixtures of WiDr and WiDr/CD cells and again plating 3,000 total cells per well in a 96 well microtiter dish, log dose response curves were generated for the inhibition of cell growth by 5-FC.

[2] = test system: WiDr tumors; assay: 5-FC treatment of subcutaneous WiDr tumors in nude mice; assay type: in vivo; details: 5-FC ip 500 mg/kg
Description: (§3) The same mixtures of WiDr and WiDr/CD cells were injected subcutaneously into 10 individual nude mice for 10 individual injections of 10 million cells for each mixture (Table 3). By day 6, all mice had tumors of approximately the same size. On day 6, 5 mice of each group received a daily injection of 5-FC (ip at 500 mg/kg body weight) for approximately 20 consecutive days, then injections of 5-FC (ip at 500 mg/kg body weight) three times a week for 19 days. By 22 days post tumor cell injection, all nontreated animals had to be killed due to the large size of the tumors. Likewise, all animals with WiDr derived tumors which also received 5-FC treatment had to be sacrificed on day 22 due to the size of the tumors.

[3] = test system: WiDr/CD tumors; assay: 5-FC treatment of subcutaneous WiDr/CD tumors in nude mice; assay type: in vivo; details: WiDr/CD cells injected; 5-FC ip 500 mg/kg; assessed day 130
Description: as §3

[4] = test system: mixed WiDr and WiDr/CD tumors; assay: 5-FC treatment of subcutaneous mixed WiDr:WiDr/CD tumors in nude mice; assay type: in vivo; details: 5-FC ip 500 mg/kg; for Number of Cures: assessed day 130
Description: as §3

[5] = test system: WiDr/CD cells; assay: Inhibition of cell growth by 5-FC in WiDr/CD cells; assay type: cell-based; details: Homo sapiens; WiDr/CD cells expressing cytosine deaminase, 3,000 cells per well, dosed from Day 3, read Day 8
Description: as §1, §2

[6] = test system: HepG2 cells; assay: Growth inhibition by araM in HepG2 cells; assay type: cell-based, human; details: HepG2 infected with ALB/VZV TK (pCR74) virus, 5 days, read-out: IC50 (50% growth inhibition)
Description: (§4) The replication-defective, full-length, artificial retroviruses containing the ALB/VZV TK chimaera or AFP/VZV TK chimaera were used to infect human hepatoma cell lines called HepG2 (ATCC HB 8065) and HuH7(provided by B. Mason, Fox Chase Cancer Center, Philadelphia, Pa.). Following infection and selection on 1 mg Geneticin/mL, the cells were assayed for VZV TK activity (Geneticin(antibiotic G418 sulphate) is a registered trademark of GIBCO). In addition, HepG2 cells were incubated in the presence of (^3H)-labeled 9-β-D-arabinofuranosyl-6-methoxy-9H-purine (designated as araM in the following tables and figures) with subsequent measurement of ara-ATP formation. Finally, HepG2 and HuH7 cells were cultured in the presence of the abovementioned compound and the IC50 (50% growth inhibition) was determined. Cells infected with no virus or N2 virus act as control samples for these experiments. The N2 viruses contain no VZV TK genetic material.
(§5) HepG2 and HuH7 cells infected with the replication-defective, full-length, artificial retroviruses containing the ALB/VZV TK chimaera (pCR74) or AFP/VZV TK (pCR78) chimaera were incubated in the presence of varying amounts of 9-β-D-arabinofuranosyl-6-methoxy-9H-purine for 5 days and growth inhibition was determined as measured by cell number and DNA content.

[7] = test system: HuH7 cells; assay: Growth inhibition by araM in HuH7 cells; assay type: cell-based; details: Homo sapiens, Huh-7, 120 h, 5 days, read-out: IC50 (50% growth inhibition)
Description: as §4, §5

[8] = test system: WiDR, MCF7, Detroit 555, and SW480 nonhepatoma cell lines; assay: Growth inhibition by araM in infected nonhepatoma cell lines; assay type: cell-based, human; details: four nonhepatoma cell lines infected with pCR74 or pCR78 virus
Description: Four human, nonhepatoma cell lines were infected with replication-defective, full-length, artifical retroviruses containing the ALB/VZV TK chimaera (pCR74) or AFP/VZV TK chimaera (pCR78). These cell lines were WiDR (ATCC CCL218), MCF7 (ATCC HTB22), Detroit 555 (ATCC CCL110), and SW480 (ATCC CCL228). Subsequent to infection and selection on Geneticin (antibiotic G418 sulphate; registered trademark of GIBCO), these cells were assayed for VZV TK activity and growth inhibition in the presence of 9-β-D-arabinofuranosyl-6-methoxy-9H-purine, as described above. There was no increase in VZV TK activity or drug sensitivity to 9-β-D-arabino-furanosyl-6-methoxy-9H-purine in these four nonhepatoma cell lines infected with replication-defective, full-length, artificial retroviruses containing the ALB/VZV TK chimaera (pCR74) or AFP/VZV TK chimaera (pCR78) compared to parental cell lines which were not infected.

[9] = test system: HepG2 cells; assay: ara-ATP formation from (3H)-labelled araM in infected HepG2 cells; assay type: cell-based, human; details: HepG2 cells infected with either pCR74- or pCR78-containing viruses
Description: as §4
9-β-D-arabinofuranosyl-6-methoxy-9H-purine (designated as araM) can be selectively monophosphorylated by VZV TK with subsequent anabolism to cytotoxic ara-ATP.

| Compound | IC50 [1] [µM] | Number of Cures ([2]; WiDR cells injected, assessed day 22) | effect on tumors ([2]; WiDr tumors that do not express cytosine deaminase) | Number of Cures [3] | Number of Cures ([4]; WiDr:WiDr/CD (1:1) injected) | Number of Cures ([4]; WiDr:WiDr/CD (1:2) injected) | Number of Cures ([4]; WiDr:WiDr/CD (2:1) injected) | antitumor effects ([4]; all tumor groups composed of mixtures of cells which contained WiDr/CD cells) | IC50 [5] [µM] | IC50 ([6]; listed as 9-B-D-arabinofuranosyl-6-methoxy-9H-purine) [µM] | IC50 ([6]; Homo sapiens, HepG2, 120 h) [µM] | IC50 ([7]; HuH7, no virus (control)) [µM] | IC50 ([7]; HuH7 infected with AFP/VZV TK (pCR78) virus) [µM] | IC50 ([7]; HuH7 infected with ALB/VZV TK (pCR74) virus) [µM] | increase in drug sensitivity compared to parental cell lines not infected [8] | cytotoxic (3H)-ara-ATP formation [9] |
| --- | --- | --- | --- | --- | --- | --- | --- | --- | --- | --- | --- | --- | --- | --- | --- | --- |
| Nc1nc(=O)[nH]cc1F [5-FC, 5-fluorocytosine] | 10000 to 30000 | 0/5 | no effect | 3/5 | 4/5 | 4/5 | 4/5 | significant antitumor effects | 10 to 25 | – | – | – | – | – | – | – |
| COc1ncnc2c1ncn2[C@@H]1O[C@H](CO)[C@@H](O)[C@@H]1O [araM, 9-β-D-arabinofuranosyl-6-methoxy-9H-purine] | – | – | – | – | – | – | – | – | – | 5 | 6.5 | ~1620 | 76 | 11 | no increase | significant amounts |
